For one test, the system named is E. coli D31. Conditions: radial diffusion assay, 10 mM sodium phosphate pH 7.4, peptide 4-1000 ng/µl in 0.05% acetic acid, 3 h 37°C then overlay overnight. How it is done:
(§1) A radial diffusion antimicrobial assay was used to assess the antimicrobial activity of feCath and LL-37 [24]. Briefly, overnight bacterial cultures were seeded into fresh tryptic soy broth (TSB). Bacteria was grown to an optical density of 0.2 at A600, pelleted and resuspended in an equal volume of 10 mM sodium phosphate buffer, pH 7.4. Resuspended bacteria were added to underlay minimal-media agarose, and peptide, at various concentrations (1000 ng/µl, 333 ng/µl, 111 ng/µl, 37 ng/µl, 12 ng/µl and 4 ng/µl, dissolved in 0.05% acetic acid), was instilled into adjacent punch-wells. Buffer alone (0.05% acetic acid) was used as the negative control. After 3 hours of incubation at 37°C, overlay nutrient rich agarose was added and allowed to incubate overnight. The following day, zones of clearance were measured. To quantitate zones of clearance, the diameter of the agarose punch (3 mm) was subtracted from the diameter of antimicrobial clearance (in mm), and the resulting number was multiplied by 10.

In a further test the test system is Listeria monocytogenes. As to conditions: radial diffusion assay, 10 mM sodium phosphate pH 7.4, peptide 4-1000 ng/µl in 0.05% acetic acid, 3 h 37°C then overlay overnight. As to the method: as §1
For test [1], the system named is Salmonella enterica serovar Typhimurium (IR715). As to the method:
as §1

Test [2] deals with Staphylococcus pseudintermedius (clinical isolate). Conditions: radial diffusion assay, 10 mM sodium phosphate pH 7.4, peptide 4-1000 ng/µl in 0.05% acetic acid, 3 h 37°C then overlay overnight. As to the method: as §1
Test [3] concerns HaeIII digested Phi-X174 phage DNA. Nature of the test: DNA binding assay (gel electrophoresis, retarded migration). Conditions: Phi-X174 HaeIII DNA 20 ng/µl; peptide 10, 30, 100 ng/µl; 5 min room temperature, 0.05% acetic acid; agarose gel, ethidium bromide. How it is done: Hae-III digested phage DNA Phi-X174 (20 ng/µl) (Roche) was incubated with varying amounts of LL-37, feCath and magainin (10 ng/µl, 30 ng/µl and 100 ng/µl) for 5 min at room temperature. The entire reaction was resolved using agarose gel electrophoresis (1% w/v) and stained with ethidium bromide.
Figure 6 Gel electrophoresis of DNA binding assay. A DNA ladder (HaeIII digested Phi-X174, 200 ng) was incubated with increasing concentrations of peptide (100 ng, 300 ng, 1000 ng) for 5 minutes in 0.05% acetic acid at room temperature. The reaction mixture was resolved using agarose gel electrophoresis ([…]). Arrow indicates retarded migration of Phi-X174 DNA into the gel.

Converted amounts (≈) assume the structure as drawn. Like-named read-outs stand apart in the source and are kept apart here. Where no end group is shown, it is not given here.

As usually defined, the MIC is the smallest concentration in the dilution series that meets the test's criterion for growth inhibition. High values mean a need for much substance, low ones inhibition by little substance.

With `CC[C@H](C)[C@H](NC(=O)[C@H](CCCCN)NC(=O)[C@H](CCC(=O)O)NC(=O)[C@H](CCCCN)NC(=O)[C@H](CO)NC(=O)[C@H](CCCCN)NC(=O)[C@H](CCCNC(=N)N)NC(=O)[C@H](Cc1ccccc1)NC(=O)[C@H](Cc1ccccc1)NC(=O)[C@H](CC(=O)O)NC(=O)CNC(=O)[C@H](CC(C)C)NC(=O)[C@@H](N)CC(C)C)C(=O)NCC(=O)N[C@@H](CCCCN)C(=O)N[C@@H](CCC(=O)O)C(=O)N[C@@H](Cc1ccccc1)C(=O)N[C@@H](CCCCN)C(=O)N[C@@H](CCCNC(=N)N)C(=O)N[C@H](C(=O)N[C@H](C(=O)N[C@@H](CCC(N)=O)C(=O)N[C@@H](CCCNC(=N)N)C(=O)N[C@H](C(=O)N[C@@H](CCCCN)C(=O)N[C@@H](CC(=O)O)C(=O)N[C@@H](Cc1ccccc1)C(=O)N[C@@H](CC(C)C)C(=O)N[C@@H](CCCNC(=N)N)C(=O)N[C@@H](CC(N)=O)C(=O)N[C@@H](CC(C)C)C(=O)N[C@H](C(=O)N1CCC[C@H]1C(=O)N[C@@H](CCCNC(=N)N)C(=O)N[C@H](C(=O)N[C@@H](CCC(=O)O)C(=O)N[C@@H](CO)C(=O)O)[C@@H](C)O)C(C)C)[C@@H](C)CC)C(C)C)[C@@H](C)CC` [LL-37, reference compound], the MIC with E. coli D31 is 5 µg/mL (≈ 1.11 µM); in the test with Listeria monocytogenes, 7 µg/mL (≈ 1.56 µM); in test [1] (Salmonella enterica serovar Typhimurium (IR715), radial diffusion assay, 10 mM sodium phosphate pH 7.4, peptide 4-1000 ng/µl in 0.05% acetic acid, 3 h 37°C then overlay overnight) it was 12 µg/mL (≈ 2.67 µM); in test [2], 15 µg/mL (≈ 3.34 µM).
With Magainin, in test [3], the “DNA binding (retardation of DNA migration into the gel)” value is recorded as “lacks this ability to bind DNA”.
Consider “QLGELIQQGGQKIVEKIQKIGQRIRDFFSNLRPRQEA [feCath]”, for which the MIC against E. coli D31 was 21 µg/mL; in test [1] (serovar Typhimurium (IR715, 3 h, pH 7.4)) it was 29 µg/mL.

(Values after publication PMC3075274, “Expression and Activity of a Novel Cathelicidin from Domestic Cats” (PLoS ONE, 2011).)
